Measurements taken from PMC9606187, “Dual HDAC/BRD4 Inhibitors Relieves Neuropathic Pain by Attenuating Inflammatory Response in Microglia After Spared Nerve Injury” (Neurotherapeutics, 2022).
pIC50: −log10 of the molar value.

Columns and labels:
[1] = target: T1, Recombinant Human Bromodomain containing protein 4, bromodomain 2 (BRD4-BD2) (Homo sapiens, UniProt O60885); test: AlphaScreen bromodomain binding assay (Reaction Biology), BRD4-2
T1 construct: purchased Reaction Biology (RBC) RD-11–141; host or cells: E. coli
Procedure: (§1) The reader assay is a binding assay using AlphaScreen technology […] assay and was performed by Reaction Biology (www.reactionbiology.com). The biotinylated peptide binding to the reader domain of His-tagged protein is monitored by the singlet oxygen transfer from the Streptavidin-coated donor beads to the AlphaScreen Ni-chelate acceptor beads.
(§2) Reaction buffer: 50 mM Hepes, pH7.5, 100 mM NaCl, 0.05% CHAPS, 0.1% BSA, and 1% DMSO (the final DMSO concentration may differ depending on compound stock and test concentrations).
(§3) Bromodomain: BRD4-1: RBC Cat# RD-11–140: Recombinant Human Bromodomain containing protein 4, bromodomain 1 (aa 44–170; Genbank Accession # NM_058243), expressed in E. coli with N-terminal His-tag. MW = 17.8 kDa; BRD4-2: RBC Cat# RD-11–141: Recombinant Human Bromodomain containing protein 4, bromodomain 2 (aa 349–460;Genbank Accession # NM_058243), expressed in E. coli with N-terminal His-tag. MW = 15.7 kDa. Ligand (C-term-Biotin): Histone H4 peptide (1–21) K5/8/12/16Ac-Biotin. Detection beads: PerkinElmer: Donor beads: Streptavidin-coated donor beads; Acceptor beads: AlphaScreen Ni acceptor beads.
Reaction procedure: • Deliver 2.5X BRD in wells of reaction plate except No BRD control wells. Add buffer instead. • Deliver compounds in 100% DMSO into the BRD mixture by Acoustic technology (Echo550; nanoliter range). Spin down and pre-incubation for 30 min. • Deliver 5X Ligand. Spin and shake. • Incubate for 30 min at room temperature with gentle shaking. • Deliver 5X donor beads. Spin and shake. • Deliver 5X acceptor beads. Spin and shake. Then gentle shaking in the dark for 60 min. • Alpha measurement (Ex/Em = 680/520–620 nm) in Enspire.

[2] = tested on: MAPK p38 (phosphorylated); test: Western blot of lumbar spinal cord, p-p38; assay type: in vivo, mice; conditions: SNI ipsilateral side, day 7 and 14
Procedure: The lumbar spinal cord was removed 7 and 14 days after surgery and 90 min after the intranasal administration of SUM52, corresponding to the peack of the effect. Samples (n = 4 for groups) were homogenized in a homogenization buffer and processed as previously described. Protein samples (40 µg of protein/sample) were separated on 10% SDS-PAGE and transferred onto nitrocellulose membranes (120 min at 100 V) using standard procedures. Membranes were blocked in PBST (PBS containing 0.1% Tween) containing 5% nonfat dry milk for 120 min. […] Blots were then extensively washed and developed using enhanced chemiluminescence detection system (Pierce, Milan, Italy) and signal intensity (pixels/mm^2) quantified (ImageJ, NIH). […] For each sample, the signal intensity was normalized to that of total protein stained by Ponceau S and the acquired images were quantified using Image Lab software. […]

[3] = target: T2, Recombinant Human Bromodomain containing protein 4, bromodomain 1 (BRD4-BD1) (Homo sapiens, UniProt O60885); test: AlphaScreen bromodomain binding assay (Reaction Biology), BRD4-1
T2 construct: bromodomain 1 (aa 44–170); purchased Reaction Biology (RBC) RD-11–140; host or cells: E. coli
Procedure: as §1, §2, §3
Reaction procedure: • Deliver 2.5X BRD in wells of reaction plate except No BRD control wells. Add buffer instead. • Deliver compounds in 100% DMSO into the BRD mixture by Acoustic technology (Echo550; nanoliter range). […]

Cc1nnc2n1-c1ccccc1C(c1ccccc1)=N[C@H]2CC(=O)NCCCCCCC(=O)NO [SUM52, (S)-N-hydroxy-7-(2-(1-methyl-6-phenyl-4H-benzo[f][1,2,4]triazolo[4,3-a][1,4]diazepin-4-yl)acetamido)heptanamide]
pIC50 [1]: 7.98 | preference between BRD4-BD1 and BRD4-BD2 domains ([1]; BRD4-BD1 vs BRD4-BD2): preferential interaction for BRD4-BD2 | phosphorylation of MAPK p38 [2]: drastically reduced | pIC50 [3]: 6.12
